Experimental data: patent US11725011B2, “Bicyclic urea kinase inhibitors and uses thereof” (The Broad Institute, Inc., priority 2016, dated 2023)

Key:
PRKCH = PRKCH (Homo sapiens (Human), UniProt P24723); assay: KINOMEscan; format: binding; settings: 1 uM
FGFR3 = FGFR3 (Homo sapiens (Human), UniProt P22607); assay: KINOMEscan; format: binding; settings: 1 uM
KIT (V559D) = KIT (V559D) (Homo sapiens (Human), UniProt P10721, V559D); assay: KINOMEscan; format: binding; settings: 1 uM
CSNK1D = CSNK1D (Homo sapiens (Human), UniProt P48730); assay: KINOMEscan; format: binding; settings: 1 uM
LOK = LOK (Homo sapiens (Human), UniProt O94804); assay: KINOMEscan; format: binding; settings: 1 uM
AMPK-alpha1 = AMPK-alpha1 (Homo sapiens (Human), UniProt Q13131); assay: KINOMEscan; format: binding; settings: 1 uM
KIT (D816H) = KIT (D816H) (Homo sapiens (Human), UniProt P10721, D816H); assay: KINOMEscan; format: binding; settings: 1 uM
ERBB3 = ERBB3 (Homo sapiens (Human), UniProt P21860); assay: KINOMEscan; format: binding; settings: 1 uM
PRKD2 = PRKD2 (Homo sapiens (Human), UniProt Q9BZL6); assay: KINOMEscan; format: binding; settings: 1 uM
CSNK1A1 = CSNK1A1 (Homo sapiens (Human), UniProt P48729); assay: KINOMEscan; format: binding; settings: 1 uM
PIK3CA (Q546K) = PIK3CA (Q546K) (Homo sapiens (Human), UniProt P42336, Q546K); assay: KINOMEscan; format: binding; settings: 1 uM
PIK3CB = PIK3CB (Homo sapiens (Human), UniProt P42338); assay: KINOMEscan; format: binding; settings: 1 uM
MAK = MAK (Homo sapiens (Human), UniProt P20794); assay: KINOMEscan; format: binding; settings: 1 uM
RIOK1 = RIOK1 (Homo sapiens (Human), UniProt Q9BRS2); assay: KINOMEscan; format: binding; settings: 1 uM
WEE1 = WEE1 (Homo sapiens (Human), UniProt P30291); assay: KINOMEscan; format: binding; settings: 1 uM
PIK3CA (C420R) = PIK3CA (C420R) (Homo sapiens (Human), UniProt P42336, C420R); assay: KINOMEscan; format: binding; settings: 1 uM
TRKB = TRKB (Homo sapiens (Human), UniProt Q16620); assay: KINOMEscan; format: binding; settings: 1 uM
IKK-epsilon = IKK-epsilon (Homo sapiens (Human), UniProt Q14164); assay: KINOMEscan; format: binding; settings: 1 uM
NEK1 = NEK1 (Homo sapiens (Human), UniProt Q96PY6); assay: KINOMEscan; format: binding; settings: 1 uM
[1] = target: ABL1 (H396P)-nonphosphorylated (Homo sapiens (Human), UniProt P00519, H396P); assay: KINOMEscan; format: binding; settings: 1 uM
SIK2 [2] = target: T1, SIK2 (Homo sapiens (Human), UniProt Q9H0K1); assay: KINOMEscan; format: binding; settings: 1 uM
PAK2 = PAK2 (Homo sapiens (Human), UniProt Q13177); assay: KINOMEscan; format: binding; settings: 1 uM
EPHA3 = EPHA3 (Homo sapiens (Human), UniProt P29320); assay: KINOMEscan; format: binding; settings: 1 uM
PRKD3 = PRKD3 (Homo sapiens (Human), UniProt O94806); assay: KINOMEscan; format: binding; settings: 1 uM
EGFR = EGFR (Homo sapiens (Human), UniProt P00533); assay: KINOMEscan; format: binding; settings: 1 uM
TNNI3K = TNNI3K (Homo sapiens (Human), UniProt Q59H18); assay: KINOMEscan; format: binding; settings: 1 uM
PIP5K1C = PIP5K1C (Homo sapiens (Human), UniProt O60331); assay: KINOMEscan; format: binding; settings: 1 uM
PFTAIRE2 = PFTAIRE2 (Homo sapiens (Human), UniProt Q96Q40); assay: KINOMEscan; format: binding; settings: 1 uM
FLT3 (R834Q) = FLT3 (R834Q) (Homo sapiens (Human), UniProt P36888, R834Q); assay: KINOMEscan; format: binding; settings: 1 uM
VRK2 = VRK2 (Homo sapiens (Human), UniProt Q86Y07); assay: KINOMEscan; format: binding; settings: 1 uM
FES = FES (Homo sapiens (Human), UniProt P07332); assay: KINOMEscan; format: binding; settings: 1 uM
[3] = target: RSK2 (Kin.Dom.1-N-terminal) (Homo sapiens (Human), UniProt P51812); assay: KINOMEscan; format: binding; settings: 1 uM
LKB1 = LKB1 (Homo sapiens (Human), UniProt Q15831); assay: KINOMEscan; format: binding; settings: 1 uM
Viability loss (Table 4) = format: cell-based
DRAK2 = DRAK2 (Homo sapiens (Human), UniProt O94768); assay: KINOMEscan; format: binding; settings: 1 uM
RIOK3 = RIOK3 (Homo sapiens (Human), UniProt O14730); assay: KINOMEscan; format: binding; settings: 1 uM
SIK2 [4] = target: T1, SIK2; assay: Percent activity against SIK2 at 1 μM; format: biochemical
PIK3CG = PIK3CG (Homo sapiens (Human), UniProt P48736); assay: KINOMEscan; format: binding; settings: 1 uM
RIPK5 = RIPK5 (Homo sapiens (Human), UniProt Q6XUX3); assay: KINOMEscan; format: binding; settings: 1 uM
[5] = target: RSK2 (Kin.Dom.2-C-terminal) (Homo sapiens (Human), UniProt P51812); assay: KINOMEscan; format: binding; settings: 1 uM
RSK2 (Kin.Dom.2-C-terminal), sequence (P51812 422-679): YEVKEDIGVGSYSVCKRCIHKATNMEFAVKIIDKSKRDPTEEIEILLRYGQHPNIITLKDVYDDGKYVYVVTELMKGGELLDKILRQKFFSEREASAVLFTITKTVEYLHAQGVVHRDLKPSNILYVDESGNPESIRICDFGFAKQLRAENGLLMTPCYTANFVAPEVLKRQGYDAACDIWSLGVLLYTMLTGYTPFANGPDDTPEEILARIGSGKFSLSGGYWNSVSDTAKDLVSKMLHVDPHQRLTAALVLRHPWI

T1 sequence (Q9H0K1 whole entry): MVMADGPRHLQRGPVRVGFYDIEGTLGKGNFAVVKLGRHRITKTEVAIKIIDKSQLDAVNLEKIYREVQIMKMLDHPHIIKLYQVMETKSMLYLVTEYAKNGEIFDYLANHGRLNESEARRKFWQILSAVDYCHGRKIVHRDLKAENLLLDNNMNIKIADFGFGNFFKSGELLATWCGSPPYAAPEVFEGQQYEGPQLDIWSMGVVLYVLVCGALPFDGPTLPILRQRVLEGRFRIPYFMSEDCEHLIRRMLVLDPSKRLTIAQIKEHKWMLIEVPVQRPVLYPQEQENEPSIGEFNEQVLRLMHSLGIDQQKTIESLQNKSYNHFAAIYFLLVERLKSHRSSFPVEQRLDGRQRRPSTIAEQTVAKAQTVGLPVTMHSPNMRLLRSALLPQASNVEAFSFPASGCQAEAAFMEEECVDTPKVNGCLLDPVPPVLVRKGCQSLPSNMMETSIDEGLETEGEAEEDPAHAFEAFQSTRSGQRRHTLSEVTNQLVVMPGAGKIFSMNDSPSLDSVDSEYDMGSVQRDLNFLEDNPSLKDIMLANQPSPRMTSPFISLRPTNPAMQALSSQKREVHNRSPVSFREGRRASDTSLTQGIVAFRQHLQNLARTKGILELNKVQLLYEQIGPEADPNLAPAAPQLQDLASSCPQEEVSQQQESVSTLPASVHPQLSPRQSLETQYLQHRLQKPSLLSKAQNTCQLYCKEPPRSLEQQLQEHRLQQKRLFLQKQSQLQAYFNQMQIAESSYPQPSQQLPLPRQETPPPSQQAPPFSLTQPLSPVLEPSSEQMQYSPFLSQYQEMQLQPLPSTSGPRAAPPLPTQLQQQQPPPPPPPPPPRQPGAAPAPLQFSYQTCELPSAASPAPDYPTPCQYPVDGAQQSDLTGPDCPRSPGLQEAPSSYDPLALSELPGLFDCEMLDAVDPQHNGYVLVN
PIP5K1C, sequence (O60331 whole entry): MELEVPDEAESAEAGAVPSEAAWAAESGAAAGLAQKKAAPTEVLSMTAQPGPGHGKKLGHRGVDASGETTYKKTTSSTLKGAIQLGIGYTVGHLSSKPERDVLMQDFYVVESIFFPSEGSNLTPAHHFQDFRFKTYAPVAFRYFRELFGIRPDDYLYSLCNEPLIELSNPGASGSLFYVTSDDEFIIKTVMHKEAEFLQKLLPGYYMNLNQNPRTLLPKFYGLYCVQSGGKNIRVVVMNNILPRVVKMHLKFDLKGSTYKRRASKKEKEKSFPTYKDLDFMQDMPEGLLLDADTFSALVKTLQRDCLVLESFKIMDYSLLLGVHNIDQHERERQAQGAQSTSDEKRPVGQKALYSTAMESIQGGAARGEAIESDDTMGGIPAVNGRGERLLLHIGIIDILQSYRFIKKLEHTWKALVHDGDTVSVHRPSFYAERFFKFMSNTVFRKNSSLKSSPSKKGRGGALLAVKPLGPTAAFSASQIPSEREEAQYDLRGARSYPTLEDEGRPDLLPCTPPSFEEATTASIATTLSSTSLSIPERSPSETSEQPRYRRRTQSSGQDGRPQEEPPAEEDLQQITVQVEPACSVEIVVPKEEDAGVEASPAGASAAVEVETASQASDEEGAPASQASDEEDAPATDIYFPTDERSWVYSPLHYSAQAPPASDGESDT
RSK2 (Kin.Dom.1-N-terminal), sequence (P51812 68-327): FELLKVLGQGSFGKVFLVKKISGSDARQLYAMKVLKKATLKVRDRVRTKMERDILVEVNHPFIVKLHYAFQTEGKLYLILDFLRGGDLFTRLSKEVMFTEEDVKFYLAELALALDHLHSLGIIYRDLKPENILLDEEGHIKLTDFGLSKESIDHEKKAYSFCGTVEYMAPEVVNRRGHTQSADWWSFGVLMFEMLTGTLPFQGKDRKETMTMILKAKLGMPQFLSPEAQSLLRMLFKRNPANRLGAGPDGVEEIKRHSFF
CSNK1A1, sequence (P48729 whole entry): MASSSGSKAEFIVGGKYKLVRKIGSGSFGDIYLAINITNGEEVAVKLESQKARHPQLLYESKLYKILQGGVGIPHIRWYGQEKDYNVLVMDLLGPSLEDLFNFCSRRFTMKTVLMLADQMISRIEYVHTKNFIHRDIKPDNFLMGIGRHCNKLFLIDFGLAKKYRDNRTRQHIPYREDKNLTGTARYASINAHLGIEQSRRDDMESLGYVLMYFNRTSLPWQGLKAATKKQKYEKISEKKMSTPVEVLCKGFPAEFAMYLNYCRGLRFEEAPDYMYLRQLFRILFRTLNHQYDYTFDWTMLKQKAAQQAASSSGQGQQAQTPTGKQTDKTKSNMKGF
RIOK1, sequence (Q9BRS2 whole entry): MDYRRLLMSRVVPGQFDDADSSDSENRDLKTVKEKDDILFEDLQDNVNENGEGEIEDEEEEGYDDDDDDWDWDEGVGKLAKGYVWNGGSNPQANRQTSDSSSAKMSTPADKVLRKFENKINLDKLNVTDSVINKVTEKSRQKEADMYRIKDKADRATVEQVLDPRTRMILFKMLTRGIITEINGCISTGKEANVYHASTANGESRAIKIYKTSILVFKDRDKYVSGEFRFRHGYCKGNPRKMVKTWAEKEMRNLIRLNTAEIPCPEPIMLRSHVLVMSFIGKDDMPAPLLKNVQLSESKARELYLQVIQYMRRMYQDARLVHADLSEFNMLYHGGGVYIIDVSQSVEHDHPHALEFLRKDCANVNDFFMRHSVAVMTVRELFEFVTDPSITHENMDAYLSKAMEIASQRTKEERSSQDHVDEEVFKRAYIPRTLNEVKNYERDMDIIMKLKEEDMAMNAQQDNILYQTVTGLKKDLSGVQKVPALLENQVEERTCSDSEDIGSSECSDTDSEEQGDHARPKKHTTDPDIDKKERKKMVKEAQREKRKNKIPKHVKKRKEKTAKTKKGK
AMPK-alpha1, sequence (Q13131 whole entry): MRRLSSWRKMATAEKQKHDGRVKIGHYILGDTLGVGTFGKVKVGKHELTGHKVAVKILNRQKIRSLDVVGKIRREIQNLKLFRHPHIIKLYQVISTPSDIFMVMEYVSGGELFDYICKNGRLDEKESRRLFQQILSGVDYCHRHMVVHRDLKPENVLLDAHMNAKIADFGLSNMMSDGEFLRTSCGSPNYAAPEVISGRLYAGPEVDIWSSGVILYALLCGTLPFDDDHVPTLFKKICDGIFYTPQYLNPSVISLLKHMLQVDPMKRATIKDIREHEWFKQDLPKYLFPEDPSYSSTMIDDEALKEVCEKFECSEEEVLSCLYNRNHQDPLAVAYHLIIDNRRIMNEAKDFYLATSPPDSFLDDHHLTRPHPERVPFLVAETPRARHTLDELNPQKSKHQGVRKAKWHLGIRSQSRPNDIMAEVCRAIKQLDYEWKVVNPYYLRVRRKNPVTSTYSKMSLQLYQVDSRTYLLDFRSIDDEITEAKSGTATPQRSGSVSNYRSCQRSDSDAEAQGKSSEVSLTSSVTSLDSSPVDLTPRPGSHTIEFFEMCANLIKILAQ
EGFR, sequence (P00533 25-1210): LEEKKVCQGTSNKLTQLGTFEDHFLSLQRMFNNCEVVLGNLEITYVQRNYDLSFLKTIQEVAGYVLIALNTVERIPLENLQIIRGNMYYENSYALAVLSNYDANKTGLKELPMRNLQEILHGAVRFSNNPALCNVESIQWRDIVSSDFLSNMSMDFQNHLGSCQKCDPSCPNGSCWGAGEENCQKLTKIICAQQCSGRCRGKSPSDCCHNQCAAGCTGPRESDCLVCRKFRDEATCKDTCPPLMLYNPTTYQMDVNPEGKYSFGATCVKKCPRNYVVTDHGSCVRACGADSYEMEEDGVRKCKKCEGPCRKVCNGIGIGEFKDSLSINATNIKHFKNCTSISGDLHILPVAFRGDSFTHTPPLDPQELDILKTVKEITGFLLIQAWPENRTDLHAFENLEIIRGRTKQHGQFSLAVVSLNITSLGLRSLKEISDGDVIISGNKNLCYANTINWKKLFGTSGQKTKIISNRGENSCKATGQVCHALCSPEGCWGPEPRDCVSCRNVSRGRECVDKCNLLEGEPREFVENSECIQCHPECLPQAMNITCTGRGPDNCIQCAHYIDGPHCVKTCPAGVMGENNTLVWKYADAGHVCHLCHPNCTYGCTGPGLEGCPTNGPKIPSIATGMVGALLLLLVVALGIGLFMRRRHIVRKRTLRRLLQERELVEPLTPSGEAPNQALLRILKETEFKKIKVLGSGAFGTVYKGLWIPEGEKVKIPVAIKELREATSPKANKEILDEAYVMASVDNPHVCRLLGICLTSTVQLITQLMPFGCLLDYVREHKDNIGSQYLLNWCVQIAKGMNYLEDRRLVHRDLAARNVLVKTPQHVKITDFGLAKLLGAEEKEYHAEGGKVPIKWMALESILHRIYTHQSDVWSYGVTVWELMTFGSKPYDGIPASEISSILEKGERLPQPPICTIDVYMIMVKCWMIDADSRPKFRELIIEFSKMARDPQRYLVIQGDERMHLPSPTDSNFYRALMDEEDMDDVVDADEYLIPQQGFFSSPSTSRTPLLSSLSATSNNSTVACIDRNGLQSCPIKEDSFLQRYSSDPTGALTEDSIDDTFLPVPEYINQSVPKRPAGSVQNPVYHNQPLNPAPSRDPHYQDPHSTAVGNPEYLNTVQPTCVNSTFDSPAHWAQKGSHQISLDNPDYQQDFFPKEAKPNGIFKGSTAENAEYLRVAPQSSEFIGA

With COc1ccc(N2C(=O)N(c3c(C)cccc3C)Cc3cnc(Nc4ccc(N5CCN(C)CC5)cc4)nc32)c(OC)c1 [HG-11-136-01] the “KINOMEscan PRKCH” value (PRKCH) was 100, the “KINOMEscan FGFR3” value (FGFR3) was 0.95 and the “KINOMEscan KIT (V559D)” value (KIT (V559D)) was 0. For the same compound, the “KINOMEscan CSNK1D” value (CSNK1D) was 100, the “KINOMEscan LOK” value (LOK) was 0 and the “KINOMEscan AMPK-alpha1” value (AMPK-alpha1) was 33. For the same compound, the “KINOMEscan KIT (D816H)” value (KIT (D816H)) was 6, the “KINOMEscan ERBB3” value (ERBB3) was 0 and the “KINOMEscan PRKD2” value (PRKD2) was 3.6. For the same compound, the “KINOMEscan CSNK1A1” value (CSNK1A1) was 100, the “KINOMEscan PIK3CA (Q546K)” value (PIK3CA (Q546K)) was 94 and the “KINOMEscan PIK3CB” value (PIK3CB) was 92. The “KINOMEscan MAK” value (MAK) was 100, the “KINOMEscan RIOK1” value (RIOK1) was 9.2 and the “KINOMEscan WEE1” value (WEE1) was 69. The “KINOMEscan PIK3CA (C420R)” value (PIK3CA (C420R)) was 69, the “KINOMEscan TRKB” value (TRKB) was 63 and the “KINOMEscan IKK-epsilon” value (IKK-epsilon) was 47. For the same compound, the “KINOMEscan NEK1” value (NEK1) was 88, the “KINOMEscan ABL1 (H396P)-nonphosphorylated” value [1] was 0 and the “KINOMEscan SIK2” value (SIK2 [2]) was 6.1. The “KINOMEscan PAK2” value (PAK2) was 61, the “KINOMEscan EPHA3” value (EPHA3) was 0.8 and the “KINOMEscan PRKD3” value (PRKD3) was 5.4. The “KINOMEscan EGFR” value (EGFR) was 0.7, the “KINOMEscan TNNI3K” value (TNNI3K) was 3.6 and the “KINOMEscan PIP5K1C” value (PIP5K1C) was 70. For the same compound, the “KINOMEscan PFTAIRE2” value (PFTAIRE2) was 78, the “KINOMEscan FLT3 (R834Q)” value (FLT3 (R834Q)) was 48 and the “KINOMEscan VRK2” value (VRK2) was 86. For the same compound, the “KINOMEscan FES” value (FES) was 0, the “KINOMEscan RSK2 (Kin.Dom.1-N-terminal)” value [3] was 12 and the “KINOMEscan LKB1” value (LKB1) was 69. For the same compound, the “Viability loss AC40” value (Viability loss (Table 4)) was 97 nM, the “Viability loss data mode” value (Viability loss (Table 4)) was “decreasing” and the “KINOMEscan DRAK2” value (DRAK2) was 100. The “KINOMEscan RIOK3” value (RIOK3) was 25, the “Enzyme activity at 1 μM (%) SIK2” value (SIK2 [4]; 1 μM) was 2.8% and the “SIK2 % ACTIVITY” value (SIK2 [4]; compound at 1 μM, approximate Km for ATP) was 2.8%. For the same compound, the “KINOMEscan PIK3CG” value (PIK3CG) was 77, the “KINOMEscan RIPK5” value (RIPK5) was 2.8 and the “KINOMEscan RSK2 (Kin.Dom.2-C-terminal)” value [5] was 51.
